Data set [1] deals with IL-5 production. The data set is described as follows: Inhibition of IL-5 production by D10.G4.1 Th2 cells stimulated with conalbumin and antigen presenting cells (IL-5 ELISA). As to conditions: inhibitory effect on IL-5 production; murine Th2 clone D10.G4.1 cells, conalbumin as antigen, 48 hours incubation, IL-5 in supernatant by ELISA. The format is cell-based. On the procedure:
The action on IL-5 production in mice was examined according to the following method as disclosed in […], et al., Immunology Letters, Vol. 34, pp. 297-302 (1992). Murine Th2 clone (D10.G4.1 cells) was purchased from ATCC. Antigen presenting cells were prepared by suspending 1 x 10^7 spleen cells of a 8-week-old female C3H/HeN mice in 5 ml of an RPMI-1640 medium and incubated together with 50 μg/ml of mitomycin C (MMC) at 37°C for 30 minutes and then washed with three 50 ml portions of RPMI-1640. To RPMI-1640 containing 10% bovine serum were added 0.5 U of IL-2 (produced by Genzyme) and 5 x 10^-5 M of 2-mercaptoethanol to prepare a medium for tissue culture. A test compound was dissolved in dimethyl sulfoxide (DMSO) and diluted with the tissue culture medium to have a final DMSO concentration of 0.1% and a varied test compound concentration. In each well of a 96-well microtiter plate (produced by Corning Glass Works) were put each 50 μl/well of 4 x 10^5 cells/ml of D10.G4.1 cells, 2 x 10^6 cells/ml of MMC-treated antigen presenting cells, 400 μg/ml of conalbumin (produced by Sigma) as an antigen and the solution of the test compound in the tissue culture medium (to make 200 μl/well), and incubated in an incubator under 5% CO2 at 37°C for 48 hours. After completion of the incubation, the supernatant liquor of the culture was collected, and the cells were separated by centrifugation. The IL-5 in the supernatant liquor was determined with an IL-5 ELISA kit produced by ENDOGEN. […]
In general terms: In an ELISA, binding on a coated surface is turned into a signal by an enzyme label.

Data set [2] concerns ICR male mice. The data set is described as follows: Oral toxicity (mortality) in mice. The format is in vivo. As to conditions: orally administered to ICR male mice grouped in fives, dose level of 100 mg/kg. From the text: The compounds of Examples 1, 2, and 3 were orally administered to ICR male mice grouped in fives.
For data set [3], the system named is IL-5 production. As to conditions: reported in Japanese Journal of Allergology, 44(3-2), p. 424 (1993); judged not sufficient by the patent; cited from earlier work.

This is an account of results in patent publication EP0775489A1, “INTERLEUKIN-5 PRODUCTION INHIBITOR” (TAISHO PHARMACEUTICAL CO. LTD, priority 1994, dated 1996).

For orientation: IC50 means the point on the concentration scale where inhibition reaches its midpoint. For the compound “6-O-Methylerythromycin A 9-[O-(2-Chlorophenylmethyl)oxime] [Compound of Example 1]”, inhibition in data set [1] was half-maximal at 0.27 µM (IC50). Moreover, the death result in data set [2] is reported as “No death was observed”.
The like results for “6-O-Methylerythromycin A 9-[O-(3-Methoxy-4-t-butylbenzyl)oxime] 11,12-Cyclic Carbonate [Compound of Example 2]” were, in that order, 0.12 µM and “No death was observed”.
The like results for “11-Amino-9-N,11-N-cyclic ethylene-9-deoxo-11-deoxy-6-O-methylerythromycin A 9-Benzylamine 11-N,12-O-Cyclic Carbamate [Compound of Example 3]” were, in that order, 0.12 µM and “No death was observed”.
As for `CC[C@H]1OC(=O)[C@H](C)[C@@H](O[C@H]2C[C@@](C)(OC)[C@@H](O)[C@H](C)O2)[C@H](C)[C@@H](O[C@@H]2O[C@H](C)C[C@H](N(C)C)[C@H]2O)[C@](C)(O)C[C@@H](C)C(=O)[C@H](C)[C@@H](O)[C@]1(C)O` [Erythromycin], in data set [3], the “inhibitory activity on IL-5 production” value is “have an inhibitory activity on IL-5 production”.
As for `CC[C@H]1OC(=O)[C@H](C)[C@@H](O[C@H]2C[C@@](C)(OC)[C@@H](O)[C@H](C)O2)[C@H](C)[C@@H](O[C@@H]2O[C@H](C)C[C@H](N(C)C)[C@H]2O)[C@](C)(O)C[C@@H](C)/C(=N\OCOCCOC)[C@H](C)[C@@H](O)[C@]1(C)O` [Roxithromycin], the “inhibitory activity on IL-5 production” value in data set [3] is “have an inhibitory activity on IL-5 production”.
